# Test results as given in US11304886B2, “N-acyl sarcosines as antimicrobials for preservation of home and personal care products” (GALAXY SURFACTANTS LTD., priority 2016, dated 2022).
# Legend:
# Assay in all cases: Minimum Inhibitory Concentration (MIC)
# Assay type in all cases: cell-based
# [1] = test system: Propionibacterium acnes ATCC 1953
# [2] = test system: Pseudomonas aeruginosa ATCC 15442
# [3] = test system: Escherichia coli ATCC 8739
# [4] = test system: Staphylococcus aureus ATCC 6538
# [5] = test system: Malassezia furfur MTCC 1374
# [6] = test system: Aspergillus niger ATCC 16404
# [7] = test system: Candida albicans ATCC 10231
Compound,MIC (%) [1],MIC (%) [2],MIC (%) [3],MIC (%) [4],MIC (%) [5],MIC (%) [6],MIC (%) [7]
"OCCOc1ccccc1 [phenoxy ethanol, 2-phenoxy ethanol, reference compound]",0.4%,0.8%,0.6%,0.8%,0.6%,0.9%,0.6%
"C=CCCCCCCCCC(=O)N(C)CC(=O)O [N-Undecylenoyl sarcosine, N-Undecylenoyl Sarcosine]",0.7%,0.6%,0.7%,0.6%,0.6%,>1.0%,0.6%
"CCCCCCCC(=O)N(C)CC(=O)O [N-Capryloyl sarcosine, N-Capryloyl Sarcosine]",0.6%,0.7%,0.7%,0.7%,0.6%,>1.0%,0.7%
